pEC50: −log10 of the molar value.

The source of these data is patent publication US10835532B2, “Muscarinic agonists as cognitive enhancers” (The University of Toledo, priority 2008, dated 2020).

For one data set, the target named is T1, M2 receptors (Homo sapiens, UniProt P08172).
T1 construct: expressed in transfected cells; host or cells: A9 L cells
T1 sequence (P08172 1-466): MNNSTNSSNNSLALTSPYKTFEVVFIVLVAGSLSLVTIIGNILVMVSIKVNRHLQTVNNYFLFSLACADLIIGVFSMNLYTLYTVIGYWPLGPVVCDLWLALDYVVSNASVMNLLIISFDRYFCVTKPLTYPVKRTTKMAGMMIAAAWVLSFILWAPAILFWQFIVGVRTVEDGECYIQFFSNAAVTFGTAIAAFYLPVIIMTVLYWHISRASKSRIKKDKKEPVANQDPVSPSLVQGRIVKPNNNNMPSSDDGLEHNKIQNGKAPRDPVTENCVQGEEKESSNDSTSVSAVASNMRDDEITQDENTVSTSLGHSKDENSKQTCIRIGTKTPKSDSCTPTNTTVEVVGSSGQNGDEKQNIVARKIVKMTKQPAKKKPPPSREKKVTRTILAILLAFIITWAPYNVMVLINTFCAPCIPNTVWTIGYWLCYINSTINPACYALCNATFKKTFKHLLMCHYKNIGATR
Briefly: Inhibition of adenylyl cyclase activity (cAMP levels) in A9 L cells expressing M2 receptors. It counts as cell-based. As for the experimental part: (§1) The observed functional selectivity of CDD-0102A is unique among compounds purported to be selective M1 agonists. […] The lack of selectivity likely contributes to the high incidence of adverse effects observed when the compounds are administered to humans. To assess selectivity for muscarinic receptors, the ability of CDD-0102A to activate responses was compared with the nonselective, full agonist carbachol at each muscarinic receptor subtype. In cultured cell lines expressing individual muscarinic receptor subtypes, phosphoinositide (PI) metabolism studies assessed activity at M1, M3 and M5 receptors, while measures of cAMP levels examined M2 and M4 receptor activity. […] CDD-0102 was not active when M5 receptors were expressed at low levels in A9 L cells. […] Thus, CDD-0102 is a functionally-selective M1 agonist with weaker activity at M5 receptors, very weak activity at M3 receptor and no activity at M2 or M4 receptors.
In general terms: cAMP levels reflect the balance of adenylyl cyclase and phosphodiesterase activity.

Another data set addresses T2, M1 receptors (Homo sapiens, UniProt P11229).
T2 construct: expressed in transfected cells; host or cells: A9 L cells
T2 sequence (P11229 1-460): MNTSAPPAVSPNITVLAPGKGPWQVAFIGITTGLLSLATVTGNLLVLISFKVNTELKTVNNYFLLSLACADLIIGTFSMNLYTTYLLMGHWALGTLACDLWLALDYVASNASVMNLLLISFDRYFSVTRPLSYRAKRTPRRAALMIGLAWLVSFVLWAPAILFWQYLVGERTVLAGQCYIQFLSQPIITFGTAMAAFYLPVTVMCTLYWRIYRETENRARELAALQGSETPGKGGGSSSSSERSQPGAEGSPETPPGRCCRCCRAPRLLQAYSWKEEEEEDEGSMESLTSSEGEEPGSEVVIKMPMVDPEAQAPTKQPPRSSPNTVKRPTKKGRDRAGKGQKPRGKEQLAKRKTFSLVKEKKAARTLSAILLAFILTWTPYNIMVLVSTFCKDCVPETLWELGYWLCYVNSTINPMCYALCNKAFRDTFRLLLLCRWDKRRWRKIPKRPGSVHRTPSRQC
Description: PI metabolism in A9 L cells expressing M1 receptors. It counts as cell-based. The conditions noted are these: M1 receptors expressed in A9 L cells. The procedure: as §1

A further data set addresses T3, M5 receptors (Homo sapiens, UniProt P08912).
T3 construct: expressed in transfected cells; host or cells: A9 L cells
T3 sequence (P08912 1-532): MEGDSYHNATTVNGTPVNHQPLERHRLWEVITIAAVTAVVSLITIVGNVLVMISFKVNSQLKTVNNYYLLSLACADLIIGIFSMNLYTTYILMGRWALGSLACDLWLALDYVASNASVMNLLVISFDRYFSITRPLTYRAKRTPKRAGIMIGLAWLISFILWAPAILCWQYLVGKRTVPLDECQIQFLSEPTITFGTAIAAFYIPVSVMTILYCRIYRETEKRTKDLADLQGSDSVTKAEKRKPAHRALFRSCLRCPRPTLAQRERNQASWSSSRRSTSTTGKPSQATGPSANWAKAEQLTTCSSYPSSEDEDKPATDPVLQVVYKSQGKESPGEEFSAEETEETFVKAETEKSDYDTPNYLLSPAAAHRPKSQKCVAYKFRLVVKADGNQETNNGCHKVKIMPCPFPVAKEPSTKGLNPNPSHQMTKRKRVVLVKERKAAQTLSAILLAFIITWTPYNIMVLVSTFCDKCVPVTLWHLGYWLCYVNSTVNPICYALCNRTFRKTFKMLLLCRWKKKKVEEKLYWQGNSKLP
Briefly: PI metabolism in A9 L cells expressing M5 receptors. Format: cell-based. As for the experimental part: as §1

Data set [1] deals with rats with impaired cholinergic function. Conditions: Messer et al. 2002; cited from earlier work.
The target in the next data set is T4, M4 receptors (Homo sapiens, UniProt P08173).
T4 construct: expressed in transfected cells; host or cells: CHO cells
T4 sequence (P08173 1-479): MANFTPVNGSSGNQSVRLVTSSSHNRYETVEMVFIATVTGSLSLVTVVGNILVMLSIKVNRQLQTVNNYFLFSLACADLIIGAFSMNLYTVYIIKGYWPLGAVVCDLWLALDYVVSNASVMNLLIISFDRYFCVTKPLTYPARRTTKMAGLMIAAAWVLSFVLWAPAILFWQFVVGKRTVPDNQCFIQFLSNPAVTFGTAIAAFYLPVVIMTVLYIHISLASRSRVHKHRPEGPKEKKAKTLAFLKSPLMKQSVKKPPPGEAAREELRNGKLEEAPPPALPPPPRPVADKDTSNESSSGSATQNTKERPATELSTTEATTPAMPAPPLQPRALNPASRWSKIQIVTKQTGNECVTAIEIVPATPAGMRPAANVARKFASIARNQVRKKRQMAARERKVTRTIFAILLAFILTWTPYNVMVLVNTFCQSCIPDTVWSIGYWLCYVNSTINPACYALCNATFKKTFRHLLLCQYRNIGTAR
Briefly: Inhibition of adenylyl cyclase activity (cAMP levels) in CHO cells expressing M4 receptors. It counts as cell-based. The procedure: as §1

For data set [2] the following is noted: Messer et al. 2002; cited from earlier work.
The target in the next data set is T5, M3 receptors (Homo sapiens, UniProt P20309).
T5 construct: expressed in transfected cells; host or cells: A9 L cells
T5 sequence (P20309 whole entry): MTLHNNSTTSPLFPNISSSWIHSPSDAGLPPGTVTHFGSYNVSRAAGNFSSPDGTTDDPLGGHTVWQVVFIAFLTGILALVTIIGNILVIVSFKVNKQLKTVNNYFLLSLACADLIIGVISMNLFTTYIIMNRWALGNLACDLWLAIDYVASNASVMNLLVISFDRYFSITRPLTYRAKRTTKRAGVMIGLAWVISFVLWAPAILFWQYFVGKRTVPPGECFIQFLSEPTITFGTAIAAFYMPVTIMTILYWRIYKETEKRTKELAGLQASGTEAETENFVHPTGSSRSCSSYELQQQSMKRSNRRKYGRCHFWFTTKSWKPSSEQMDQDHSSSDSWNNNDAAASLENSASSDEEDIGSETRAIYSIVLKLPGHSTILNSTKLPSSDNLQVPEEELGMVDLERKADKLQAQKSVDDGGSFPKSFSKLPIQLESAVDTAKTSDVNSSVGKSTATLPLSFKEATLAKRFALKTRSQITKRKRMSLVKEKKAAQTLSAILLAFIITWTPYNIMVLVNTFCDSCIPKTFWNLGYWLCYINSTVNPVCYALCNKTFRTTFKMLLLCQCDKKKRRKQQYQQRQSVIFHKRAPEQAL
Description: PI metabolism in A9 L cells expressing M3 receptors. It counts as cell-based. Conditions: M3 receptors expressed in A9 L cells. As for the experimental part: as §1

Setting [3] is: read-out: EC50, stimulation of PI metabolism.

For `CCc1noc(C2CN=CNC2)n1` (centres unmarked) [CDD-0102, 5-(3-ethyl-1,2,4-oxadiazol-5-yl)-1,4,5,6-tetrahydropyrimidine], the “Inhibition of adenylyl cyclase activity” value on M2 receptors and on M4 receptors was “inactive” throughout. Moreover, the negative-log EC50 (pEC50) at M1 receptors (setting [3]) is 4.89; on M5 receptors (higher levels of M5 receptor expression in A9 L cells, read-out: EC50, stimulation of PI metabolism), 5.12; on M3 receptors (setting [3]), 5.00. In addition, the “PI metabolism, % of the carbachol response” value was 46% at M1 receptors (relative to full agonist carbachol); 28% on M5 receptors (higher levels of M5 receptor expression in A9 L cells, relative to carbachol); 6.6% at M3 receptors (relative to carbachol). In addition, the “Activity in PI metabolism” value on M5 receptors (M5 receptors expressed at low levels in A9 L cells) is reported as “not active”. Also, the Memory deficits result in data set [1] is given as “reverses memory deficits”. Besides, in data set [2], the “Side effect profile in vivo” value is “low side effect profile”.

For orientation: pEC50 means the negative decadic logarithm of the EC50, by convention in mol/L.
